Data as given in US11484543B2, “Compositions and methods for diagnosing and treating diseases and disorders associated with mutant KCNJ5” (The Rockefeller University, priority 2017, dated 2022).

Assays:
[1] = molecular target: T1, KCNJ5^G151R homotetramers (Homo sapiens, UniProt P48544, G151R); assay: Perforated whole-cell patch clamp, KCNJ5^G151R homotetramers in HEK293T cells; assay type: cell-based; conditions: HEK-293T, at −80 mV
T1 construct: GFP; expressed in transfected cells; host or cells: HEK293T (American Type Culture Collection), transient
T1 sequence (P48544 1-419 G151R): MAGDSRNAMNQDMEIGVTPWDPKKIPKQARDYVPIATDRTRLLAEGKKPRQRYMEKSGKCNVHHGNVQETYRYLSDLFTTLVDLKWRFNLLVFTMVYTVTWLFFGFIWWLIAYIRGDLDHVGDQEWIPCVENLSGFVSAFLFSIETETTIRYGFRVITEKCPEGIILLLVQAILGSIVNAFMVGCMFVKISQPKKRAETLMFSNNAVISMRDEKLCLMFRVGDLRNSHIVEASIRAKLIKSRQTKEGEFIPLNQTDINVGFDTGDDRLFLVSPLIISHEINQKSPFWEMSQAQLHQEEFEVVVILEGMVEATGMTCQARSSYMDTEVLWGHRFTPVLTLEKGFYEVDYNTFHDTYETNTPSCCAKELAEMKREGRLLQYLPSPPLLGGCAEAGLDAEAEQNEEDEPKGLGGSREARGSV
Method: Cation currents were measured with the perforated whole cell recording technique (140 mM NaCl/5 mM KCl bath solution, 140 mM KCl pipette solution for KCNJ5^G151R; 140 mM NaCl/5 mM KCl bath solution, 140 mM KCl, 1.8 mM MgCl2 pipette solution for KCNJ5^L168R; 140 mM KCl bath and pipette solution for KCNJ5^WT). […] Errors represent standard error of the mean, N=3 to 6. […] In contrast, WT currents are not inhibited.
HEK293T cells (American Type Culture Collection) were used for transient expression of GFP-tagged KCNJ5 or KCNJ3. The cells were grown in Dulbecco's modified Eagle medium (DMEM; Invitrogen) supplemented with 10% FBS (Invitrogen) in 5% CO2 and 95% air at 37° C. […]
Within 24 hr after transfection, the cells were treated with trypsin-containing medium (TrypLE Express) (Gibco) for 10 minutes to detach the cells. […] Fluorescence signal (an indication of positive transfection) was detected with an intensified video imaging system including a SIT 68 camera (Long Island Industries). […] After forming a high resistance seal (>2 GΩ), the membrane capacitance was monitored until the whole-cell patch configuration was formed. The cell membrane capacitance was measured and compensated. The K/cation currents were measured from −80 mV to 20 mV with 20 mV steps by an Axon 200A patch-clamp amplifier. […]

[2] = tested on: CYP11B2 (aldosterone synthase) expression, H295R cells expressing KCNJ5^G151R; assay: Real-time PCR of CYP11B2 in H295R cells transfected with KCNJ5^G151R; assay type: cell-based, human; conditions: 5, 20 or 50 μM for 18 h; p=0.0006 at 20 μM
Method: H295R cells were cultured in DMEM/F12, HEPES (Gibco) supplemented with 2.5% Ultroser G (Pall Biosepra), 1% ITS+ Premix (Corning) and 1% Penicillin/Streptomycin (Gibco). Plasmids were purified using the Endofree Maxi Kit (Qiagen). […] 3×10^6 cells were transfected with 3 μg pIRES eGFP containing no insert, WT or mutant KCNJ5 using an Amaxa Nucleofector I (program P-20) and the Nucleofector Kit R (Lonza). Cells were allowed to recover briefly in RPMI 1640 medium (Gibco). […] After an additional 18 h, RNA was harvested using the RNeasy Mini Kit (Qiagen) following the manufacturer's instructions. 300 ng RNA were transcribed using the Quantitect Reverse Transcription Kit (Qiagen). Expression levels of CYP11B2 and GAPDH were quantified in triplicates in a 7300 Real-Time PCR System (Applied Biosystems) using the Taqman Gene Expression Master Mix and assays Hs01597732_m1 (CYP11B2) or HS02758991_g1 (GAPDH) (all Applied Biosystems). DDCT values were calculated by normalization of DCT values, using the average DCT of vehicle treated empty vector-transfected cells as a reference.
This cell line is derived from a human adrenocortical carcinoma and represents a commonly used in vitro model of zona glomerulosa aldosterone production (Wang et al. 2012, Horm. Metab. Res. 44:245-250). […]

Structure (SMILES): CC[C@H]1OC(=O)[C@H](C)[C@@H](O[C@H]2C[C@@](C)(OC)[C@@H](O)[C@H](C)O2)[C@H](C)[C@@H](O[C@@H]2O[C@H](C)C[C@H](N(C)C)[C@H]2O)[C@](C)(O)C[C@@H](C)/C(=N\OCOCCOC)[C@H](C)[C@@H](O)[C@]1(C)O [Roxithromycin, roxithromycin]
- inhibition at 10 µM ([1]; 10 μM): 53%
- inhibition at 20 µM ([1]; 20 μM): 80%
- expression of CYP11B2 [2]: inhibited expression of CYP11B2 in a dose-dependent fashion
